# Experimental data from US6528538B1, “Cyclic compounds useful in the treatment of dyslipidaemia, atherosclerosis and diabetes, pharamaceutical compositions and preparation process” (Merck Patentgesellschaft, priority 1998, dated 2003).
row,melting point [°C],Compound
1,117,CCOC(=O)C1(c2ccc(Cl)cc2)OCC2(CCC2)CO1
2,171,O=C(O)C1OCC2(CCC2c2ccc(Cl)cc2)CO1 (stereo not drawn)
3,158 to 160,O=C(O)C1OCC2(CO1)c1ccccc1-c1ccccc12
